Earlier results on 1 compound are cited in US20120129696A1, “METHOD FOR INCREASING THE LEVEL OF FREE AMINO ACIDS IN STORAGE TISSUES OF PERENNIAL PLANTS” (priority 2009, published 2012).

This data set has as its system wheat plants.

As to `COC(=O)N(OC)c1ccccc1COc1ccn(-c2ccc(Cl)cc2)n1` [pyraclostrobin], the “relative content of protein and C/N-ratios, control compared to treated plants” value is recorded as “neither the relative content of protein nor C/N-ratios were different”. For the same compound, the “persistence of enhancement of nitrate reduction” value (after a single application at rates normally used for fungal control at the field site) is listed as 3 nights. Further, the “nitrite and ammonia in the leaves following application” value (rates normally used for fungal control at the field site) was “accumulated”.
